In US12448518B2, “Phthalocyanine dye compounds, conjugates and methods of use thereof” (Rakuten Medical, Inc., priority 2020, dated 2025):

Legend:
[1] = Singlet oxygen quantum yield, indirect method with chemical quencher (DPBF or ADMA); assay type: physicochemical
Source text: Photogeneration quantum yields of singlet oxygen (ΦΔ) were obtained by an indirect method, using either diphenylisobenzofuran (DBPF) or anthracene-9,10-bis-methylmalonate (ADMA) as chemical quenchers in either N,N-dimethylformamide or aqueous media, respectively. Typically, a solution of the phthalocyanine and the quencher was irradiated with a red LED lamp (670 nm) at 5 mW/cm^2. The initial DPBF or ADMA concentrations were kept the same for both the reference and the test samples. The degradation of the DPBF band at 414 nm or ADMA at 401 nm was monitored in a Varian Cary® 50 UV-Vis spectrophotometer, every five seconds in the case of DPBF (up to 30 seconds) and every minute in the case of ADMA (up to five minutes). ZnPc (ΦΔ=0.67) and AlPcSmix (ΦΔ=0.42) were used as references in N,N-dimethylformamide or aqueous media, respectively.
The relative method shown by Eq. (1) was employed for calculations of the ΦΔ:
[formula] where ΦΔ and ΦΔref are the ^1O2 generation quantum yields for the sample and reference, respectively, m and mref are the DPBF or ADMA photobleaching rates in the presence of the phthalocyanine of the invention and the reference, respectively, and I and Iref are the rates of light absorption by the phthalocyanine derivative and reference, respectively. Concentrations of the test compound and reference were chosen such that their respective absorptions at the irradiation wavelength were the same.

BxPC3 cells = experiment: Cell killing of free dye PIT, CellTox Green Cytotoxicity Assay; assay type: cell-based; details: BxPC3, 0.00137-1 μg/mL, 690 nm laser 64 J/cm^2, 24 hours after light
Experimental: The PIT killing activity of free dyes were evaluated using the molecules synthesized as Example 12 and Example 13. BxPC3 cells (#CRL-1687, ATCC, Manassas VA) were plated, 5,000 cells per well, in RPMI-1640 media supplemented with 10% FBS and 1% Penicillin/Streptomycin (complete culture media) in a deep-well 96-well plate. Following overnight incubation at 37° C., the culture media were removed and the cells were incubated in 100 μL complete media with 1, 0.333, 0.111, 0.03704, 0.01235, 0.00412, 0.00137, or 0 μg/mL Example 12, Example 13, or IRDye 700DX carboxylate (control) for one hour at 4° C. […]
The effect of different treatment regimens on cell death was measured using the CellTox™ Green Cytotoxicity Assay (Cat No: G8742, Promega, Madison, WI). […] The CellTox™ Green fluorescence signal was measured at 24 hours after light treatment using a fluorescence plate reader. The cells were then lysed with diluted lysis solution (Cat No: G1821, Promega, Madison, WI), incubated at 37° C. for 30 minutes, and the CellTox™ Green fluorescence signal was measured again post-lysis. The percentages of dead cells were calculated by taking the ratio between background (1× CellTox™ Green in complete culture media without cells)-subtracted CellTox™ Green signal per well prior to and post lysis and multiplying the ratio by 100.

[2] = Kinetic (aqueous) solubility in pH 7.4 DPBS, UV quantification; details: for Solubility* (kinetic): pH 7.4 DPBS, 4 hours, room temperature (25° C.), from 10 mM DMSO stock
[3] = reference in N,N-dimethylformamide; cited from earlier work
[4] = quencher ADMA, aqueous media, 670 nm LED 5 mW/cm^2, reference AlPcSmix

Molecule	ΦΔ (singlet oxygen quantum yield) [1, 4]	Solubility* (kinetic) [2]	further results
3-((6-((λ^5-azaneyl)oxy)-6-oxohexyl)(3-(((λ5-azaneyl)oxy)sulfonyl)propyl)(3-(((19-(((3-(bis(3-(((λ5-azaneyl)oxy)sulfonyl)propyl)(3-sulfonatopropyl)ammonio)propyl)dimethylsilyl)oxy)-19H-6,11-(azeno)-17,21-(azeno[3]episoindoloazeno)benzo[7,8][1,3,5,10]tetraaza[2]silacycloundecino[4,3-a:11,1-a′]diisoindol-19-yl)oxy)dimethylsilyl)propyl)ammonio)propane-1-sulfonate [Example 12]	B (>0.5)	C (>100 μg/mL)	cell death after illumination (free dye) (BxPC3 cells): dose-dependent cytotoxicity
4-((6-((λ5-azaneyl)oxy)-6-oxohexyl)(4-(((λ5-azaneyl)oxy)sulfonyl)butyl)(3-(((19-(((3-(bis(4-(((λ5-azaneyl)oxy)sulfonyl)butyl)(4-sulfonatobutyl)ammonio)propyl)dimethylsilyl)oxy)-19H-6,11-(azeno)-17,21-(azeno[3]episoindoloazeno)benzo[7,8][1,3,5,10]tetraaza[2]silacycloundecino[4,3-a:11,1-a′]diisoindol-19-yl)oxy)dimethylsilyl)propyl)ammonio)butane-1-sulfonate [Example 13]	B (>0.5)	C (>100 μg/mL)	cell death after illumination (free dye) (BxPC3 cells): dose-dependent cytotoxicity
COCCOCCOCC(=O)NCCC[Si](C)(C)O[Si-2]123(O[Si](C)(C)CCCNC(=O)CCCCC(=O)O)n4c5c6ccccc6c4N=C4c6ccccc6C(=[N+]41)N=c1c4ccccc4c(n12)=NC1=[N+]3C(=N5)c2ccccc21 [Example 1, 6-((3-(dimethyl((19-((15-methyl-10-oxo-2,5,8-trioxa-11-aza-15-silahexadecan-15-yl)oxy)-19H-6,11-(azeno)-17,21-(azeno[3]episoindoloazeno)benzo[7,8][1,3,5,10]tetraaza[2]silacycloundecino[4,3-a:11,1-a′]diisoindol-19-yl)oxy)silyl)propyl)amino)-6-oxohexanoic acid]	–	–	ΦΔ (singlet oxygen quantum yield) ([1]; quencher DPBF, N,N-dimethylformamide, 670 nm LED 5 mW/cm^2, reference ZnPc): A (≤0.5)
C[Si](C)(CCCNC(=O)COCC(=O)O)O[Si]1(O[Si](C)(C)CCCNC(=O)NCCS(=O)(=O)O)n2c3c4ccccc4c2N=C2N=C(N=c4c5ccccc5c(n41)=NC1=NC(=N3)c3ccccc31)c1ccccc12.N (centres unmarked) [Example 7, Ammonium 2-(2-((3-(((19-((dimethyl(3-(3-(2-sulfonatoethyl)ureido)propyl)silyl)oxy)-19H-6,11-(azeno)-17,21-(azeno[1]episoindoloazeno)benzo[7,8][1,3,5,10]tetraaza[2]silacycloundecino[4,3-a:11,1-a′]diisoindol-19-yl)oxy)dimethylsilyl)propyl)amino)-2-oxoethoxy)acetate]	–	A (≤1 μg/mL)	–
C[Si](C)(CCCNC(=O)COCC(=O)O)O[Si]1(O[Si](C)(C)CCCNC(=O)NCC(S(=O)(=O)O)S(=O)(=O)O)n2c3c4ccccc4c2N=C2N=C(N=c4c5ccccc5c(n41)=NC1=NC(=N3)c3ccccc31)c1ccccc12.N (centres unmarked) [Example 8, Ammonium 2-(2-((3-(((19-(((3-(3-(2,2-disulfonatoethyl)ureido)propyl)dimethylsilyl)oxy)-19H-6,11-(azeno)-17,21-(azeno[1]episoindoloazeno)benzo[7,8][1,3,5,10]tetraaza[2]silacycloundecino[4,3-a:11,1-a′]diisoindol-19-yl)oxy)dimethylsilyl)propyl)amino)-2-oxoethoxy)acetate]	–	A (≤1 μg/mL)	–
C[Si](C)(CCCNC(=O)CCCN(CCCS(=O)(=O)O)CCCS(=O)(=O)O)O[Si]1(O[Si](C)(C)CCCNC(=O)COCC(=O)O)n2c3c4ccccc4c2N=C2N=C(N=c4c5ccccc5c(n41)=NC1=NC(=N3)c3ccccc31)c1ccccc12.N (centres unmarked) [Example 15, Ammonium 2-(2-((3-(((19-(((3-(4-(bis(3-sulfonatopropyl)ammonio)butanamido)propyl)dimethylsilyl)oxy)-19H-6,11-(azeno)-17,21-(azeno[1]episoindoloazeno)benzo[7,8][1,3,5,10]tetraaza[2]silacycloundecino[4,3-a:11,1-a′]diisoindol-19-yl)oxy)dimethylsilyl)propyl)amino)-2-oxoethoxy)acetate]	–	B (>1 μg/mL to ≤100 μg/mL)	–
C[Si](C)(CCC[N+](CCCCS(=O)(=O)O)(CCCCS(=O)(=O)O)CCCCS(=O)(=O)O)O[Si-2]123(O[Si](C)(C)CCC[N+](CCCCS(=O)(=O)O)(CCCCS(=O)(=O)O)CCOCCOCCOCCC(=O)O)n4c5c6ccccc6c4N=C4c6ccccc6C(=[N+]41)N=c1c4ccccc4c(n12)=NC1=[N+]3C(=N5)c2ccccc21.[Na+].[Na+].[Na+].[Na+] [Example 17, Sodium 2-((19-((dimethyl(3-(tris(4-sulfonatobutyl)ammonio)propyl)silyl)oxy)-19H-6,11-(azeno)-17,21-(azeno[3]episoindoloazeno)benzo[7,8][1,3,5,10]tetraaza[2]silacycloundecino[4,3-a:11,1-a′]diisoindol-19-yl)oxy)-2-methyl-6,6-bis(4-sulfonatobutyl)-9,12,15-trioxa-6-aza-2-silaoctadecan-6-ium-18-oate]	B (>0.5)	–	–
C[Si](C)(CCC[N+](CCCCS(=O)(=O)[O-])(CCCCS(=O)(=O)[O-])CCCCS(=O)(=O)[O-])O[Si@@]1(O[Si](C)(C)CCC[N+](CCCCS(=O)(=O)[O-])(CCCCS(=O)(=O)[O-])CCOCCOCCC(=O)[O-])n2c3c4ccccc4c2/N=C2N=C(/N=c4/c5ccccc5/c(n41)=N/C1=NC(=N\3)/c3ccccc31)c1ccccc1\2.[Na+].[Na+].[Na+].[Na+] [Example 18, Sodium 2-((19-((dimethyl(3-(tris(4-sulfonatobutyl)ammonio)propyl)silyl)oxy)-19H-6,11-(azeno)-17,21-(azeno[3]episoindoloazeno)benzo[7,8][1,3,5,10]tetraaza[2]silacycloundecino[4,3-a:11,1-a′]diisoindol-19-yl)oxy)-2-methyl-6,6-bis(4-sulfonatobutyl)-9,12-dioxa-6-aza-2-silapentadecan-6-ium-15-oate]	B (>0.5)	C (>100 μg/mL)	–
C[Si](C)(CCC[N+](CCCS(=O)(=O)O)(CCCS(=O)(=O)O)CCCS(=O)(=O)O)O[Si-2]123(O[Si](C)(C)CCC[N+](CCCS(=O)(=O)O)(CCCS(=O)(=O)O)CCOCCOCCOCCC(=O)O)n4c5c6ccccc6c4N=C4c6ccccc6C(=[N+]41)N=c1c4ccccc4c(n12)=NC1=[N+]3C(=N5)c2ccccc21.[Na+].[Na+].[Na+].[Na+] [Example 19, Sodium 2-((19-((dimethyl(3-(tris(3-sulfonatopropyl)ammonio)propyl)silyl)oxy)-19H-6,11-(azeno)-17,21-(azeno[3]episoindoloazeno)benzo[7,8][1,3,5,10]tetraaza[2]silacycloundecino[4,3-a:11,1-a′]diisoindol-19-yl)oxy)-2-methyl-6,6-bis(3-sulfonatopropyl)-9,12,15-trioxa-6-aza-2-silaoctadecan-6-ium-18-oate]	B (>0.5)	–	solubility kinetic at 4 h ([2]; 25 °C, pH 7.4, aqueous buffer, kinetic from dmso stock): > 100 µg/mL
[Zn+2].c1ccc2c(c1)-c1nc-2nc2[n-]c(nc3nc([n-]c4nc(n1)-c1ccccc1-4)-c1ccccc1-3)c1ccccc21 [ZnPc]	–	–	ΦΔ of reference [3]: 0.67
Ammonium 3-((4-((3-(((19-(((3-(2-(carboxymethoxy)acetamido)propyl)dimethylsilyl)oxy)-19H-6,11-(azeno)-17,21-(azeno[3]episoindoloazeno)benzo[7,8][1,3,5,10]tetraaza[2]silacycloundecino[4,3-a:11,1-a′]diisoindol-19-yl)oxy)dimethylsilyl)propyl)amino)-4-oxobutyl)bis(3-sulfopropyl)ammonio)propane-1-sulfonae [Example 5]	B (>0.5)	–	–
